Test: osmotic coefficient (dimensionless); mn = molality of the nth substance listed, in mol/kg
Conditions: Liquid, isopiestic method

O=C([O-])[C@H](O)[C@@H](O)C(=O)[O-].[K+].[K+] [dipotassium L-tartrate] + O
Conditions	osmotic coefficient
298.15 K, m1 = 0	1
298.15 K, m1 = 0.3635	0.713
298.15 K, m1 = 0.604	0.683
298.15 K, m1 = 0.7532	0.675
298.15 K, m1 = 1.285	0.677
298.15 K, m1 = 1.702	0.691
298.15 K, m1 = 1.861	0.691
298.15 K, m1 = 2.212	0.704
298.15 K, m1 = 2.379	0.711
298.15 K, m1 = 2.466	0.705
298.15 K, m1 = 2.837	0.719
298.15 K, m1 = 3.236	0.728
298.15 K, m1 = 4.168	0.759
298.15 K, m1 = 4.379	0.77
298.15 K, m1 = 4.631	0.771
298.15 K, m1 = 4.845	0.775
298.15 K, m1 = 6.72	0.805
298.15 K, m1 = 6.869	0.804
308.15 K, m1 = 0	1
308.15 K, m1 = 0.3282	0.721
308.15 K, m1 = 0.7152	0.706
308.15 K, m1 = 0.9198	0.702
308.15 K, m1 = 1.135	0.692
308.15 K, m1 = 1.327	0.694
308.15 K, m1 = 1.854	0.705
308.15 K, m1 = 2.215	0.712
308.15 K, m1 = 2.842	0.725
308.15 K, m1 = 3.585	0.751
308.15 K, m1 = 4.177	0.764
308.15 K, m1 = 5.047	0.78
308.15 K, m1 = 5.836	0.793
308.15 K, m1 = 6.435	0.806
318.15 K, m1 = 0	1
318.15 K, m1 = 0.2468	0.741
318.15 K, m1 = 0.3446	0.745
318.15 K, m1 = 0.5504	0.721
318.15 K, m1 = 0.6181	0.712
318.15 K, m1 = 0.9764	0.707
318.15 K, m1 = 1.276	0.702
318.15 K, m1 = 1.536	0.712
318.15 K, m1 = 1.995	0.723
318.15 K, m1 = 2.646	0.737
318.15 K, m1 = 2.934	0.751
318.15 K, m1 = 4.154	0.777
318.15 K, m1 = 4.813	0.791
318.15 K, m1 = 5.749	0.804
